Measured values taken from patent publication US20050245452A1, “Pharmaceutical use of novispirins” (Novozymes A/S, priority 2004, published 2005).
Ends that are not written are not given here.

Legend:
[1] = tested on: P. acnes (erythromycin sensitive); experiment: MIC on Propionebacterium acnes, erythromycin sensitive strain; format: cell-based
Protocol: (§1) Minimal Inhibitory Concentration (MIC) of Novispirin G10 (SEQ ID NO: 16) was evaluated against P. acnes. Two strains were tested—one of which is clinically resistant to clindamycin and erythromycin.

[2] = tested on: P. acnes (erythromycin resistant); experiment: MIC on Propionebacterium acnes, erythromycin resistant strain; format: cell-based; conditions: clinically resistant to clindamycin and erythromycin
Protocol: as §1

[3] = tested on: Staphylococcus aureus (ATCC 25923); experiment: Staphylococcus aureus wound infection in pigs (wound chambers, 4 hour time course); format: in vivo, Göttinger minipigs; conditions: 100 micrograms/ml, 1 ml applied
Protocol: The bacterial strain, Staphylococcus aureus, used in the study was ATCC 25923. The amino acid sequence of Novispirin G10 is shown in SEQ ID NO: 16.
Novispirin G10 was diluted in 0.01% acetic acid containing 0.1% BSA with a final concentration of 1 mg (substrate)/ml (solution); 100 micrograms/ml; 10 micrograms/ml and 1 microgram/ml. The carrier control was 0.01% acetic acid containing 0.1% BSA. As a positive control was used Synthetic Protegrin 1 (Charité, Institut f. Biochemie d. Humboldt Universität Berlin) diluted in 0.01% acetic acid containing 0.1% BSA with a final concentration of 100 micrograms/ml.
The chambers are made of one piece of titanium, have a screw top cover (also made of titanium) and were built in teamwork with Cranio Construct Bochum. The chambers have a height of 14 mm, an inner diameter of 25 mm and an outer diameter of 32 mm without baseplate (with baseplate: 50 mm).
After providing permission to conduct experiments with vertebrates in compliance with German animal protection laws, Göttinger minipigs (Fa. Ellegaard, Dalmose, Denmark; female, 6 months old, 25-30 kg weight) were chosen to implant the chambers on. The pigs were kept at least 2 weeks in the stable, fed a standard porcine diet and housed at 20° C. to 30° C. in an atmosphere of approximately 65% humidity with a light cycle of 12 hours on and 12 hours off. The animals used for this study appeared, during the experiments, clinically healthy—rectal temperature and body weight remained normal over the observed period.
Before wounding the skin was surgically prepared, washed with soap and disinfected with Octenisept (S&M, Norderstedt, Germany) for five minutes. Twelve BO-Chambers were implanted on the pigs back and flank between the base of the scapula and the iliac crest. The wounds were spaced a minimum of 5 cm apart and were created in four rows parallel to the columna vertebralis, two rows on each side of the columna vertebrtalis. The exact size and shape of the wounds were ensured by a special custom-made “round-scalpel” (also built in teamwork with Cranio Construct Bochum), which has a diameter of 33 mm. Epidermal, dermal subcutaneous tissues were removed, possible bleedings stanched by bipolar diathermy. The chambers were placed with an additionally secant v-incision at positions 6 respectively 12 o'clock on the musculus thoracicus longus fascia and the muscle fascia of the external ripcage muscles. The incisions were sutured with 2/0 Monocryl followed by the closure of the chambers. Povidone-iodine salve (Betaisodonna-salve, Mundipharma, Austria) was smothered on the wound edges. The chambers were dressed with paraffin gauze (Jelonet, Smith & Nephew, Lohfelden, Germany) and sterile compresses. Dressings were changed every second day under sedation (as described above).
Bacterial Background of each chamber was measured every second day, to detect potential contamination. Only one contaminated chamber was detected. Seven days post operation ten chambers were inoculated with bacteria.
For bacteria progeny Staphylococcus aureus (ATCC 25923) was plated on LB-Agar plate and incubated at 37° C. for 18 hours. One colony was picked and transfered into 3 ml LB-Medium for over night culture at 37° C. at 300 rpm. Over night culture was diluted in 50 ml fresh LB-Medium and incubated for 2.5 hours at 37° C. at 200 rpm.
Bacteria were pelleted, 4000 rpm, 5 min, Mergafuge 1.0 R (Heraeus, Hanau, Germany), and resuspended in PBS. Amount of containg bacteria was detremined by OD600 nm-measurement and calculated as follows: Colony forming Unit/ml=OD600 nm×2.5×10^8 (bacteria)
To inoculate one chamber 5×10^8 were used.
The establishment of the infection was proven by the measurement of bacterial counts per chamber. All inoculated chambers were infected after two days. Chamber No. 2 keeps bacteria free.
At day four after infection the antimicrobial effect of the testing substrate was measured in a time course of 4 hours in duration. […]

With `CCC[C@@H]1C[C@@H](C(=O)N[C@@H]([C@H]2O[C@H](SC)[C@H](O)[C@@H](O)[C@H]2O)[C@H](C)Cl)N(C)C1` [Clindamycin] the “Minimal Inhibitory Concentration (MIC)” value [1] was 0.12 and the “Minimal Inhibitory Concentration (MIC)” value [2] was 64.

With `CC[C@H]1OC(=O)[C@H](C)[C@@H](O[C@H]2C[C@@](C)(OC)[C@@H](O)[C@H](C)O2)[C@H](C)[C@@H](O[C@@H]2O[C@H](C)C[C@H](N(C)C)[C@H]2O)[C@](C)(O)C[C@@H](C)C(=O)[C@H](C)[C@@H](O)[C@]1(C)O` [Erythromycin] the “Minimal Inhibitory Concentration (MIC)” value [1] was 0.25 and the “Minimal Inhibitory Concentration (MIC)” value [2] was 64.

In the case of “Protegrin 1: Synthetic Protegrin 1 (Charité, Humboldt Universität Berlin), used as a positive control at 100 micrograms/ml (RGGRLCYCRRRFCVCVGR; ends and bridges not checked; cysteine pairing not given here; UniProt P32194 131-148, looked up) [reference compound]”, the “Mean CFU per ml sample volume (chamber fluid)” value (“Mean CFU per ml sample volume” below) ([3]; 0 hours) was 13200000 CFU/ml, the “Mean CFU per ml sample volume” value ([3]; 1 hour) was 88667 CFU/ml and the “Mean CFU per ml sample volume” value ([3]; 2 hours) was 12800 CFU/ml. For the same compound, the “Mean CFU per ml sample volume” value ([3]; 3 hours) was 3525 CFU/ml and the “Mean CFU per ml sample volume” value ([3]; 4 hours) was 129000 CFU/ml.
